In US9260425B2 (Genetech, Inc., priority 2011, dated 2016):

target: Pim-1 (Homo sapiens (Human), UniProt P11309); experiment: Pim kinase binding activity assay (Example 901), PIM-1 enzyme, Caliper microfluidic peptide phosphorylation; assay type: biochemical; conditions: 20 pM PIM-1, 10 μM ATP, 1 μM FAM-peptide, 90 minutes at room temperature
Procedure: Pim Kinase Binding Activity
A fluorescent-labeled Pim-specific peptide substrate, was custom synthesized by American Peptide Company (Sunnyvale, Calif.). Reaction Buffer contained 10 mM HEPES, pH 7.2, 10 mM MgCl2, 0.01% Tween 20, 2 mM DTT. Termination Buffer contained 190 mM HEPES, pH 7.2, 0.015% Brij-35, 0.2% Coating Reagent 3 (Caliper Life Sciences, Hopkinton, Mass.), 20 mM EDTA. Separation Buffer contained 100 mM HEPES, pH 7.2, 0.015% Brij-35, 0.1% Coating Reagent 3, 1:200 Coating Reagent 8 (Caliper Life Sciences, Hopkinton, Mass.), 10 mM EDTA and 5% DMSO.
PIM reactions were carried out in a final volume of 10 μL per well in a 384-well plate. A standard enzymatic reaction, initiated by the addition of 5 μL 2×ATP and test compound to 5 μL of 2× enzyme and FAM-peptide, contained 20 pM PIM-1, 50 pM PIM-2, or 55 pM PIM-3, 1 μM FAM-peptide, and 10 μM ATP, in Reaction Buffer. After 90 minutes of incubation at room temperature, the phosphorylation reaction was stopped by the addition of 10 μL Termination Buffer. The product and substrate in each independent reaction were separated on a 12-sipper microfluidic chip (Caliper Life Sciences, Hopkinton, Mass.) run on a Caliper LC3000® (Caliper Life Sciences, Hopkinton, Mass.). The separation of product and substrate was optimized by choosing voltages and pressure using Caliper's Optimizer software (Hopkinton, Mass.). […] The product and substrate fluorophore were excited at 488 nm and detected at 530 nm. Substrate conversion was calculated from the electropherogram using HTS Well Analyzer software (Caliper Life Sciences, Hopkinton, Mass.). Ki values for the test compound were calculated.

Pim-1, sequence (P11309 whole entry): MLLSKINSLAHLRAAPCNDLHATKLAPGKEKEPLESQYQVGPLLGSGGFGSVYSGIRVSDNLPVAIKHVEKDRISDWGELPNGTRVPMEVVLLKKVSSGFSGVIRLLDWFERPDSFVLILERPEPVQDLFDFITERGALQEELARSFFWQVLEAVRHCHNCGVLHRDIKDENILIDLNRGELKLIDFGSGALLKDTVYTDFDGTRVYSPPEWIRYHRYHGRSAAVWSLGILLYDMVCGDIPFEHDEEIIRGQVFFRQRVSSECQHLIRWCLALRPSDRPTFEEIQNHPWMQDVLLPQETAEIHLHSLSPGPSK

Ki | Structure (SMILES)
3500 nM | Cc1n[nH]c2cnc(-c3cnccc3N3CCC[C@H](N)C3)cc12 [Example 112, (S)-1-(3-(3-methyl-1H-pyrazolo[3,4-c]pyridin-5-yl)pyridin-4-yl)piperidin-3-amine]
3200 nM | c1cncc(-c2cc3c(CNCC4CCNCC4)n[nH]c3cn2)c1 [Example 113, 1-(piperidin-4-yl)-N-((5-(pyridin-3-yl)-1H-pyrazolo[3,4-c]pyridin-3-yl)methyl)methanamine]
844 nM | Cc1n[nH]c2cnc(-c3cnn(C4COC4)c3)cc12 [Example 114, 3-methyl-5-(1-(oxetan-3-yl)-1H-pyrazol-4-yl)-1H-pyrazolo[3,4-c]pyridine]
620 nM | Cc1n[nH]c2cnc(-c3cnccn3)cc12 [Example 118, 3-methyl-5-(pyrazin-2-yl)-1H-pyrazolo[3,4-c]pyridine]
1100 nM | Cc1n[nH]c2cnc(-c3cnccc3N3CCC[C@@H](N)C3)cc12 [Example 119, (R)-1-(3-(3-methyl-1H-pyrazolo[3,4-c]pyridin-5-yl)pyridin-4-yl)piperidin-3-amine]
4.78 nM | Cc1n[nH]c2cnc(-c3cncc(N4CCC[C@H](N)C4)n3)cc12 [Example 120, (S)-1-(6-(3-methyl-1H-pyrazolo[3,4-c]pyridin-5-yl)pyrazin-2-yl)piperidin-3-amine]
6.91 nM | Cc1n[nH]c2cnc(-c3cncc(N4CCC[C@@H](N)C4)n3)cc12 [Example 121, (R)-1-(6-(3-methyl-1H-pyrazolo[3,4-c]pyridin-5-yl)pyrazin-2-yl)piperidin-3-amine]
737 nM | Cc1n[nH]c2cnc(-c3cncc(F)c3)cc12 [Example 123, 5-(5-fluoropyridin-3-yl)-3-methyl-1H-pyrazolo[3,4-c]pyridine]
307 nM | NC(=O)c1cccc(-c2n[nH]c3cnc(-c4cccnc4)cc23)c1 [Example 125, 3-(5-(pyridin-3-yl)-1H-pyrazolo[3,4-c]pyridin-3-yl)benzamide]
15.9 nM | FC(F)(F)c1cccc(-c2n[nH]c3cnc(-c4cccnc4)cc23)c1 [Example 126, 5-(pyridin-3-yl)-3-(3-(trifluoromethyl)phenyl)-1H-pyrazolo[3,4-c]pyridine]
261 nM | Cc1n[nH]c2cnc(-c3cnn(C)c3)cc12 [Example 127, 3-methyl-5-(1-methyl-1H-pyrazol-4-yl)-1H-pyrazolo[3,4-c]pyridine]
1500 nM | NC1CCN(c2ccncc2-c2cc3c(-c4ccccc4F)n[nH]c3cn2)CC1 [Example 128, 1-(3-(3-(2-fluorophenyl)-1H-pyrazolo[3,4-c]pyridin-5-yl)pyridin-4-yl)piperidin-4-amine]
1500 nM | NC[C@@H]1CCN(c2ccncc2-c2cc3c(-c4ccccc4F)n[nH]c3cn2)C1 [Example 130, (S)-(1-(3-(3-(2-fluorophenyl)-1H-pyrazolo[3,4-c]pyridin-5-yl)pyridin-4-yl)pyrrolidin-3-yl)methanamine]
13.1 nM | Fc1cccc(-c2n[nH]c3cnc(-c4cccnc4)cc23)n1 [Example 131, 3-(6-fluoropyridin-2-yl)-5-(pyridin-3-yl)-1H-pyrazolo[3,4-c]pyridine]
130 nM | O=c1cccc(-c2n[nH]c3cnc(-c4cccnc4)cc23)[nH]1 [Example 132, 6-(5-(pyridin-3-yl)-1H-pyrazolo[3,4-c]pyridin-3-yl)pyridin-2(1H)-one]
5.57 nM | Cn1cc(-c2cc3c(-c4ccccc4)n[nH]c3cn2)cn1 [Example 133, 5-(1-methyl-1H-pyrazol-4-yl)-3-phenyl-1H-pyrazolo[3,4-c]pyridine]
826 nM | N#CCc1n[nH]c2cnc(-c3cccnc3)cc12 [Example 134, 2-(5-(pyridin-3-yl)-1H-pyrazolo[3,4-c]pyridin-3-yl)acetonitrile]
387 nM | Cn1cc(-c2cc3c(CC#N)n[nH]c3cn2)cn1 [Example 135, 2-(5-(1-methyl-1H-pyrazol-4-yl)1H-pyrazolo[3,4-c]pyridin-3-yl)acetonitrile]
8.69 nM | Fc1ccccc1-c1n[nH]c2cnc(-c3cn[nH]c3)cc12 [Example 136, 3-(2-fluorophenyl)-5-(1H-pyrazol-4-yl)-1H-pyrazolo[3,4-c]pyridine]
4.61 nM | c1ccc(-c2n[nH]c3cnc(-c4cn[nH]c4)cc23)cc1 [Example 137, 3-phenyl-5-(1H-pyrazol-4-yl)-1H-pyrazolo[3,4-c]pyridine]

Ki | Structure (SMILES)
577 nM | Fc1ccccc1-c1n[nH]c2cnc(-c3cncnc3)cc12 [Example 138, 3-(2-fluorophenyl)-5-(pyrimidin-5-yl)-1H-pyrazolo[3,4-c]pyridine]
255 nM | NC1CCCN(c2ccncc2-c2cc3c(-c4ccccc4F)n[nH]c3cn2)CC1 (centres unmarked) [Example 139, 1-(3-(3-(2-fluorophenyl)-1H-pyrazolo[3,4-c]pyridin-5-yl)pyridin-4-yl)azepan-4-amine]
412 nM | NC[C@@H]1CCCN(c2ccncc2-c2cc3c(-c4ccccc4F)n[nH]c3cn2)C1 [Example 140, (S)-(1-(3-(3-(2-fluorophenyl)-1H-pyrazolo[3,4-c]pyridin-5-yl)pyridin-4-yl)piperidin-3-yl)methanamine]
306 nM | c1ccc(-c2n[nH]c3cnc(-n4cncn4)cc23)cc1 [Example 142, 3-phenyl-5-(1H-1,2,4-triazol-1-yl)-1H-pyrazolo[3,4-c]pyridine]
0.312 nM | NCCNc1cccc(-c2n[nH]c3cnc(-c4cccnc4)cc23)n1 [Example 143, N1-(6-(5-(pyridin-3-yl)-1H-pyrazolo[3,4-c]pyridin-3-yl)pyridin-2-yl)ethane-1,2-diamine]
324 nM | N#CCc1n[nH]c2cnc(-c3cn[nH]c3)cc12 [Example 145, 2-(5-(1H-pyrazol-4-yl)-1H-pyrazolo[3,4-c]pyridin-3-yl)acetonitrile]
26.7 nM | c1ccc(-c2n[nH]c3cnc(-n4ccnc4)cc23)cc1 [Example 146, 5-(1H-imidazol-1-yl)-3-phenyl-1H-pyrazolo[3,4-c]pyridine]
0.342 nM | Fc1ccccc1-c1n[nH]c2cnc(-c3cnccc3O[C@H]3CCCNC3)cc12 [Example 148, (S)-3-(2-fluorophenyl)-5-(4-(piperidin-3-yloxy)pyridin-3-yl)-1H-pyrazolo[3,4-c]pyridin]
209 nM | c1ccc(-c2n[nH]c3cnc(-c4cncnc4)cc23)cc1 [Example 150, 3-phenyl-5-(pyrimidin-5-yl)-1H-pyrazolo[3,4-c]pyridine]
0.614 nM | Fc1ccccc1-c1n[nH]c2cnc(-c3cnccc3OCC3CCNCC3)cc12 [Example 155, 3-(2-fluorophenyl)-5-(4-(piperidin-4-ylmethoxy)pyridin-3-yl)-1H-pyrazolo[3,4-c]pyridine]
2.31 nM | c1cncc(-c2cc3c(-c4cn[nH]c4)n[nH]c3cn2)c1 [Example 156, 3-(1H-pyrazol-4-yl)-5-(pyridin-3-yl)-1H-pyrazolo[3,4-c]pyridine]
1.31 nM | NC1CCN(c2cncc(-c3cc4c(-c5ccccc5F)n[nH]c4cn3)c2)CC1 [Example 157, 1-(5-(3-(2-fluorophenyl)-1H-pyrazolo[3,4-c]pyridin-5-yl)pyridin-3-yl)piperidin-4-amine]
2.1 nM | NC1CCN(c2cncc(-c3n[nH]c4cnc(-c5cccnc5)cc34)c2)CC1 [Example 158, 1-(5-(5-(pyridin-3-yl)-1H-pyrazolo[3,4-c]pyridin-3-yl)pyridin-3-yl)piperidin-4-amine]
0.941 nM | NCCNc1cc(-c2n[nH]c3cnc(-c4cccnc4)cc23)ccn1 [Example 159, N1-(4-(5-(pyridin-3-yl)-1H-pyrazolo[3,4-c]pyridin-3-yl)pyridin-2-yl)ethane-1,2-diamine]
2.78 nM | NC1CCN(c2cc(-c3n[nH]c4cnc(-c5cccnc5)cc34)ccn2)CC1 [Example 160]
0.037 nM | c1cncc(-c2cc3c(-c4cccc(N5CCNCC5)n4)n[nH]c3cn2)c1 [Example 162, 3-(6-(piperazin-1-yl)pyridin-2-yl)-5-(pyridin-3-yl)-1H-pyrazolo[3,4-c]pyridine]
1.92 nM | Cn1cc(-c2cc3c(-c4cnn(C)c4)n[nH]c3cn2)cn1 [Example 163, 3,5-bis(1-methyl-1H-pyrazol-4-yl)-1H-pyrazolo[3,4-c]pyridine]
1.9 nM | NC[C@H]1CCN(c2cncc(-c3cc4c(-c5ccccc5F)n[nH]c4cn3)c2)C1 [Example 164, (R)-(1-(5-(3-(2-fluorophenyl)-1H-pyrazolo[3,4-c]pyridin-5-yl)pyridin-3-yl)pyrrolidin-3-yl)methanamine]
0.985 nM | NCC1CCN(c2cncc(-c3n[nH]c4cnc(-c5cccnc5)cc34)c2)CC1 [Example 165, (1-(5-(5-(pyridin-3-yl)-1H-pyrazolo[3,4-c]pyridin-3-yl)pyridin-3-yl)piperidin-4-yl)methanamine]
0.574 nM | NC1CCCN(c2cncc(-c3cc4c(-c5ccccc5F)n[nH]c4cn3)c2)CC1 (centres unmarked) [Example 166, 1-(5-(3-(2-fluorophenyl)-1H-pyrazolo[3,4-c]pyridin-5-yl)pyridin-3-yl)azepan-4-amine]

Structure (SMILES) | Ki
Cc1n[nH]c2cnc(-c3cncnc3)cc12 [Example 115, 3-methyl-5-(pyrimidin-5-yl)-1H-pyrazolo[3,4-c]pyridine] | 3500 nM
